We go through 12 compounds from patent US20240158355A1, “BET SUBFAMILY INHIBITORS AND METHODS USING SAME” (Baylor College of Medicine, priority 2021, published 2024).

Data set [1] concerns mice. The following applies: cited from earlier work.
The conditions of data set [2]: mouse, in vivo; cited from earlier work.
Data set [3] concerns the target BRD4-BD2 (Homo sapiens (Human), UniProt O60885). The following applies: cited from earlier work.
The subject of data set [4] is BD2. The following applies: cited from earlier work.
For data set [5], the target named is T1, BRDT-BD2 (Homo sapiens (Human), UniProt Q58F21). The data set is described as follows: AlphaScreen bromodomain proximity assay (competition with biotinylated (+)-JQ1), BRDT-BD2. The data set is classed as binding. For orientation: Bead proximity is the source of the signal in Alpha formats.
Data set [6] concerns the target BRDT-BD1 (Homo sapiens (Human), UniProt Q58F21). The data set is described as follows: AlphaScreen bromodomain proximity assay (competition with biotinylated (+)-JQ1), BRDT-BD1. To be noted: NE: no effect at 10 μM. In kind it is binding.
Data set [7] in a line: Metabolic stability assay in mouse liver microsomes. The following applies: for half-life at 2 μM: 0.5 mg protein/mL, 37° C., read-out: MLM t1/2. The data set is classed as in vitro ADME. How it is done:
(§1) Compounds 3-10, 15, 17, and 20-22 (2.0 μM) were incubated in the mouse or human liver microsomes (0.5 mg protein/mL) at 37° C. […] The reaction mixtures were centrifuged at rcf 15,000 for 15 min. […] The column temperature was maintained at 40° C. […] Q Exactive MS was operated in positive or negative mode with electrospray ionization.

Data set [8] can be described thus: Metabolic stability assay in human liver microsomes. In kind it is in vitro ADME. The following applies: for half-life at 2 μM: read-out: HLM t1/2; for human microsomal stability: in words. How it is done:
as §1
A general note: Liver microsomes are vesicles of endoplasmic reticulum, rich in cytochrome P450 enzymes.

Data set [9] has as its target His-BRDT-BD2 (Homo sapiens (Human), UniProt Q58F21). The following applies: 0 = theoretically present in the library but not detected in the sequencing data.
In data set [10] the test system is bromodomains. The following applies: BROMOscan competition binding.
Experimental: (§2) Binding constants (Kds) were calculated with a standard dose-response curve using the Hill equation:
1+(KdHill Slope/DoseHill Slope)
The Hill Slope was set to −1.
(§3) Curves were fitted using a non-linear least square fit with the Levenberg-Marquardt algorithm.
The target of data set [11] is T1, BRDT-BD2. To be noted: BromoKdELECT dose-response.
Experimental: as §2
1+(KdHill Slope/DoseHill Slope)
The Hill Slope was set to −1.
as §3
The mark [12] stands for this setting: data >60 min is an extrapolated estimate.
The mark [13] stands for this setting: 2.0 μM, 0.5 mg protein/mL, 37° C.

The structures appear in SMILES notation.

Take `Cc1sc2c(c1C)C(c1ccc(Cl)cc1)=N[C@@H](CC(=O)OC(C)(C)C)c1nnc(C)n1-2` [(+)-JQ1, tert-butyl (S)-2-(4-(4-chlorophenyl)-2,3,9-trimethyl-6H-thieno[3,2-f][1,2,4]triazolo[4,3-a][1,4]diazepin-6-yl)acetate]: the contraceptive effect result in data set [1] was “complete and reversible contraceptive effect”. The “bioavailable across the blood-testis boundary” value in data set [2] is 100%.
As to `CCNC(=O)c1cc2c(-c3cc(C(C)(C)O)ccc3Oc3c(C)cc(F)cc3C)cn(C)c(=O)c2[nH]1` [ABBV-744], the “selectivity for BRD4-BD2” value in data set [3] is recorded as 95-290 fold.
For `CC(=O)Nc1c(F)cc(C(=O)N[C@H]2CC[C@H](O)CC2)cc1O[C@@H](C)c1ccccc1` [GSK046], the “selectivity for BD2 over BD1” value in data set [4] was over 300 fold.
Regarding `CNC(=O)c1ccc(C(=O)Nc2cc(NC(=O)c3ccc4c(c3)c(-c3cc5ccccc5n3C)nn4C)ccc2OC)cc1` [compound 3, N^1-(2-Methoxy-5-(1-methyl-3-(1-methyl-1H-indol-2-yl)-1H-indazole-5-carboxamido)phenyl)-N^4-methylterephthalamide], the results for the IC50 in data set [5] and in [6] were 22 nM and over 10000 nM, respectively. The half-life at 2 μM is 31 min in [7] and 87 min in data set [8] (setting [12]). The “Count (observed molecule count in the DEC-Tec screen against BRDT-BD2)” value (“Count” for short) in data set [9] was 1039.
For `CNC(=O)c1ccc(C(=O)Nc2cc(NC(=O)c3ccc4c(c3)c(-c3ccc(N)cc3C)nn4C)ccc2OC)cc1` [compound 4, N^1-(5-(3-(4-Amino-2-methylphenyl)-1-methyl-1H-indazole-5-carboxamido)-2-methoxyphenyl)-N^4-methylterephthalamide], the IC50 (usually the midpoint of a concentration-inhibition curve) was 12 nM in data set [5] and over 10000 nM in data set [6]. In addition, the half-life at 2 μM is 14 min in [7] and 100 min in data set [8] (setting [12]). Also, in [9], the “Count” value turned out to be 838.
Turning to `CNC(=O)c1ccc(C(=O)Nc2cc(NC(=O)c3ccc4c(c3)c(-c3ccc(C)cc3C)nn4C)ccc2OC)cc1` [compound 5, N^1-(5-(3-(2,4-Dimethylphenyl)-1-methyl-1H-indazole-5-carboxamido)-2-methoxyphenyl)-N^4-methylterephthalamide], the 50% inhibitory concentration (IC50) in [5] was 26 nM; in data set [6], over 10000 nM. Besides, the half-life at 2 μM in data set [7] amounted to 20 min; in [8] (setting [13]), 18 min. The “Count” value in data set [9] stood at 515.
Turning to `CNC(=O)c1ccc(C(=O)Nc2cc(NC(=O)c3ccc4c(c3)c(-c3ccccc3C)nn4C)ccc2OC)cc1` [compound 6, N^1-(2-Methoxy-5-(1-methyl-3-(o-tolyl)-1H-indazole-5-carboxamido)phenyl)-N^4-methylterephthalamide], the IC50 worked out at 61 nM in [5] and 6300 nM in data set [6]. Also, the half-life at 2 μM in [7] is 40 min; in data set [8] (setting [13]) it was 17 min. Further, the “Count” value in [9] came out at 0.
With `CNC(=O)c1ccc(C(=O)Nc2cc(NC(=O)c3ccc4c(c3)c(-c3ccc(N)cc3)nn4C)ccc2OC)cc1` [compound 7, N^1-(5-(3-(4-Aminophenyl)-1-methyl-1H-indazole-5-carboxamido)-2-methoxyphenyl)-N^4-methylterephthalamide], the IC50 in data set [5] is 15 nM; in data set [6] it was over 10000 nM. The half-life at 2 μM was 51 min in data set [7] and 250 min in data set [8] (setting [12]). The “Count” value in [9] came out at 63.
As for `CNC(=O)c1ccc(C(=O)Nc2cc(NC(=O)c3ccc4c(c3)c(-c3ccc(N)cc3C)nn4C)ccc2C)cc1` [compound 9, N^1-(5-(3-(4-Amino-2-methylphenyl)-1-methyl-1H-indazole-5-carboxamido)-2-methylphenyl)-N^4-methylterephthalamide], in data set [8], the human microsomal stability entry is “high metabolic stability”.
In the case of `CNC(=O)c1ccc(C(=O)Nc2cc(NC(=O)c3ccc4c(c3)c(-c3ccc(N)nc3)nn4C)ccc2C)cc1` [compound 10, N^1-(5-(3-(6-Aminopyridin-3-yl)-1-methyl-1H-indazole-5-carboxamido)-2-methylphenyl)-N^4-methylterephthalamide], the figures for the IC50 in [5] and in data set [6] were 17 nM and over 10000 nM, respectively. Further, the mouse microsomal stability result in data set [7] (in words) was “high metabolic stability”. In addition, the human microsomal stability result in data set [8] is given as “high metabolic stability”. The “Count” value in data set [9] was determined as 3.
For the compound `CNC(=O)c1ccc(C(=O)Nc2cc(NC(=O)c3ccc4c(c3)c(-c3ccncc3)nn4C)ccc2C)cc1` [compound 12, N^1-Methyl-N^4-(2-methyl-5-(1-methyl-3-(pyridin-4-yl)-1H-indazole-5-carboxamido)phenyl)terephthalamide], the IC50 in data set [5] was 978 nM; in data set [6] it was over 10000 nM. Further, in data set [9], the “Count” value is reported as 0.
Regarding `CC(=O)Nc1cc(NC(=O)c2ccc3c(c2)c(-c2ccc(N)cc2C)nn3C)ccc1C` [compound 20, N-(3-Acetamido-4-methylphenyl)-3-(4-amino-2-methylphenyl)-1-methyl-1H-indazole-5-carboxamide], the results for the IC50 in data set [5] and in data set [6] were 8 nM and over 10000 nM, respectively. Moreover, in data set [10], the “binding selectivity across bromodomains” value is “potent and selective binding to only the second bromodomains within the BET subfamily”. For the same compound, the “potency at binding BRDT-BD2 relative to (+)-JQ1” value in data set [11] was “more than 20 fold”.
